For this experiment, the target named is recombinant human HPK1 (Homo sapiens (Human), UniProt Q92918). Put plainly: HPK1 kinase assay (ADP-Glo). The note with it: 25 μM ATP, MBP substrate. It counts as biochemical. As for the experimental part: HPK1 kinase activity was measured by Promega's ADP-Glo™ kinase assay. In this assay, 5 ng of recombinant human HPK1 (signalchem) is incubated with 5 μL of compounds (0.5% DMSO), 5 μL of MBP (0.5 μg/μl) and 5 μL of ATP (25 μM) in buffer (40 mM Tris, 7.5; 20 mM MgCl2; 0.1 mg/ml BSA; 5 μM DTT). The assay was started by incubating the reaction mixture in a 96-well plate at 30′ C for 40 minutes. After the incubation, 25 uL ADP-Glo reagent was added and the reaction was incubated at room temperature for 40-min to stop the reaction and degrade residual ATP. The ADP product was then converted to ATP by adding 50 uL per well of detection reagent. Luminescence was detected after 30-min room temperature incubation with the Molecular device I3X plate reader. The IC50 values were calculated from a series of percent inhibition values determined at a range of inhibitor concentration using software routines as implemented in the GraphPad Prism 7 software and SigmaPlot13.0.
In general terms: In ADP-Glo the light output rises with the ADP produced.

Chain of recombinant human HPK1 (Q92918 whole entry): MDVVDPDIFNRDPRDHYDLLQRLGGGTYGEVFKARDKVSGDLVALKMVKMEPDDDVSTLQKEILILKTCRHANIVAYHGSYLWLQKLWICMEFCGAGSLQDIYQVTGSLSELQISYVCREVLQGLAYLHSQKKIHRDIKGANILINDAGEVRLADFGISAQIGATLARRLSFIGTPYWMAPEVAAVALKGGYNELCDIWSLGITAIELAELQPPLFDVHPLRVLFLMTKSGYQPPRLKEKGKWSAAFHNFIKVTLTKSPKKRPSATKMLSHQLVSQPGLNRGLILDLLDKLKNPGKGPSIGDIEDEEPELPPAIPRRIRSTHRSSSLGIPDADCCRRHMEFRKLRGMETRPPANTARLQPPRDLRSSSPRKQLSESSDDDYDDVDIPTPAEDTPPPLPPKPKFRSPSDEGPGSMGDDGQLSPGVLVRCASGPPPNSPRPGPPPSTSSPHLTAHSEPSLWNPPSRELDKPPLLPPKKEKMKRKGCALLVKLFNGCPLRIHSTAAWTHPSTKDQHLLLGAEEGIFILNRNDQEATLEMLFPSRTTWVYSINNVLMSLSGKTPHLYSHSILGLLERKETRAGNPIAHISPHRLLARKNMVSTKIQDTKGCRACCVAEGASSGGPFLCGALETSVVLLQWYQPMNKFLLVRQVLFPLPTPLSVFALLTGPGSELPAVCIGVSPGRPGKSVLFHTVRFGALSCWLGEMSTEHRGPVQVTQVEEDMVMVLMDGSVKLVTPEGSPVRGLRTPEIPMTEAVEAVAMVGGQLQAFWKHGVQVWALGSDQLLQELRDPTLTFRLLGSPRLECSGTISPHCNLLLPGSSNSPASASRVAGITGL

Consider `Nc1c(F)c(Cl)c(-c2ccc3nc(NC(=O)[C@@H]4C[C@@H]4F)sc3c2)c2cn[nH]c12` [Example 68, (1S,2S)-N-(6-(7-amino-5-chloro-6-fluoro-1H-indazol-4-yl)benzo[d]thiazol-2-yl)-2-fluorocyclopropane-1-carboxamide], for which the IC50 is below 100 nM.

On to `CN(C)c1c(F)c(Cl)c(-c2ccc3nc(NC(=O)[C@@H]4C[C@@H]4F)sc3c2)c2cn[nH]c12` [Example 69, (1S,2S)-N-(6-(5-chloro-7-(dimethylamino)-6-fluoro-1H-indazol-4-yl)benzo[d]thiazol-2-yl)-2-fluorocyclopropane-1-carboxamide], for which the IC50 is below 100 nM.

Consider `NCCSc1c(F)c(Cl)c(-c2ccc3nc(NC(=O)[C@@H]4C[C@@H]4F)sc3c2)c2cn[nH]c12` [Example 70, (1S,2S)-N-(6-(7-((2-aminoethyl)thio)-5-chloro-6-fluoro-1H-indazol-4-yl)benzo[d]thiazol-2-yl)-2-fluorocyclopropane-1-carboxamide], for which the IC50 was below 100 nM.

`COCCSc1c(F)c(Cl)c(-c2ccc3nc(NC(=O)[C@@H]4C[C@@H]4F)sc3c2)c2cn[nH]c12` [Example 71, (1S,2S)-N-(6-(5-chloro-6-fluoro-7-((2-methoxyethyl)thio)-1H-indazol-4-yl)benzo[d]thiazol-2-yl)-2-]: the IC50 is below 100 nM.

Turning to `C=CC(=O)Nc1c(F)c(Cl)c(-c2ccc3nc(NC(=O)[C@@H]4C[C@@H]4F)sc3c2)c2cn[nH]c12` [Example 72, (1S,2S)-N-(6-(7-acrylamido-5-chloro-6-fluoro-1H-indazol-4-yl)benzo[d]thiazol-2-yl)-2-fluorocyclopropane-1-carboxamide], the IC50 is 101 to 500 nM.

On to `CC(=O)NCCSc1c(F)c(Cl)c(-c2ccc3nc(NC(=O)[C@@H]4C[C@@H]4F)sc3c2)c2cn[nH]c12` [Example 73, (1S,2S)-N-(6-(7-((2-acetamidoethyl)thio)-5-chloro-6-fluoro-1H-indazol-4-yl)benzo[d]thiazol-2-yl)-2-fluorocyclopropane-1-carboxamide], for which the IC50 was below 100 nM.

As to `O=C(Nc1nc2ccc(-c3c(Cl)c(F)c(N4CCOCC4)c4[nH]ncc34)cc2s1)[C@@H]1C[C@@H]1F` [Example 74, (1S,2S)-N-(6-(5-chloro-6-fluoro-7-morpholino-1H-indazol-4-yl)benzo[d]thiazol-2-yl)-2-fluorocyclopropane-1-carboxamide], the IC50 lay in the range of 101 to 500 nM.

As to `CN1CCN(c2c(F)c(Cl)c(-c3ccc4nc(NC(=O)[C@@H]5C[C@@H]5F)sc4c3)c3cn[nH]c23)CC1` [Example 75, (1S,2S)-N-(6-(5-chloro-6-fluoro-7-(4-methylpiperazin-1-yl)-1H-indazol-4-yl)benzo[d]thiazol-2-yl)-2-fluorocyclopropane-1-carboxamide], the concentration for half-maximal inhibition (IC50) lay within 101 to 500 nM.

As for `O=C(Nc1nc2ccc(-c3c(Cl)c(F)c(N4CCNCC4)c4[nH]ncc34)cc2s1)[C@@H]1C[C@@H]1F` [Example 76, (1S,2S)-N-(6-(5-chloro-6-fluoro-7-(piperazin-1-yl)-1H-indazol-4-yl)benzo[d]thiazol-2-yl)-2-fluorocyclopropane-1-carboxamide], the IC50 was in the range of 101 to 500 nM.

As to `O=C(Nc1nc2ccc(-c3c(Cl)c(F)c(N4CCC(O)C4)c4[nH]ncc34)cc2s1)[C@@H]1C[C@@H]1F` (stereo partly drawn) [Example 78, (1S,2S)-N-(6-(5-chloro-6-fluoro-7-(3-hydroxypyrrolidin-1-yl)-1H-indazol-4-yl)benzo[d]thiazol-2-yl)-2-fluorocyclopropane-1-carboxamide], the IC50 is 101 to 500 nM.

Take `O=C(Nc1nc2ccc(-c3c(Cl)c(F)c(SCCO)c4[nH]ncc34)cc2s1)[C@@H]1C[C@@H]1F` [Example 79, (1S,2S)-N-(6-(5-chloro-6-fluoro-7-((2-hydroxyethyl)thio)-1H-indazol-4-yl)benzo[d]thiazol-2-yl)-2-fluorocyclopropane-1-carboxamide]: the IC50 is below 100 nM.

On to `COc1c(F)c(Cl)c(-c2ccc3nc(NC(=O)[C@@H]4C[C@@H]4F)sc3c2)c2cn[nH]c12` [Example 80, (1S,2S)-N-(6-(5-chloro-6-fluoro-7-methoxy-1H-indazol-4-yl)benzo[d]thiazol-2-yl)-2-fluorocyclopropane-1-carboxamide], for which the concentration for half-maximal inhibition (IC50) was below 100 nM.

`CCOc1c(F)c(Cl)c(-c2ccc3nc(NC(=O)[C@@H]4C[C@@H]4F)sc3c2)c2cn[nH]c12` [Example 81, (1S,2S)-N-(6-(5-chloro-7-ethoxy-6-fluoro-1H-indazol-4-yl)benzo[d]thiazol-2-yl)-2-fluorocyclopropane-1-carboxamide]: the IC50 was below 100 nM.

In the case of `CN(CCN)c1c(F)c(Cl)c(-c2ccc3nc(NC(=O)[C@@H]4C[C@@H]4F)sc3c2)c2cn[nH]c12` [Example 82, (1S,2S)-N-(6-(7-((2-aminoethyl)(methyl)amino)-5-chloro-6-fluoro-1H-indazol-4-yl)benzo[d]thiazol-2-yl)-2-fluorocyclopropane-1-carboxamide], the IC50 was below 100 nM.

As for `NC1CCN(c2c(F)c(Cl)c(-c3ccc4nc(NC(=O)[C@@H]5C[C@@H]5F)sc4c3)c3cn[nH]c23)CC1` [Example 83, (1S,2S)-N-(6-(7-(4-aminopiperidin-1-yl)-5-chloro-6-fluoro-1H-indazol-4-yl)benzo[d]thiazol-2-yl)-2-fluorocyclopropane-1-carboxamide], the IC50 fell in the range of 101 to 500 nM.

Turning to `NC1CCCN(c2c(F)c(Cl)c(-c3ccc4nc(NC(=O)[C@@H]5C[C@@H]5F)sc4c3)c3cn[nH]c23)C1` (stereo partly drawn) [Example 84, (1S,2S)-N-(6-(7-(3-aminopiperidin-1-yl)-5-chloro-6-fluoro-1H-indazol-4-yl)benzo[d]thiazol-2-yl)-2-fluorocyclopropane-1-carboxamide], the IC50 was below 100 nM.

Regarding `CN(C)CCN(C)c1c(F)c(Cl)c(-c2ccc3nc(NC(=O)[C@@H]4C[C@@H]4F)sc3c2)c2cn[nH]c12` [Example 85, (1S,2S)-N-(6-(5-chloro-7-((2-(dimethylamino)ethyl)(methyl)amino)-6-fluoro-1H-indazol-4-yl)benzo[d]thiazol-2-yl)-2-fluorocyclopropane-1-carboxamide], the IC50 was below 100 nM.

`O=C(Nc1nc2ccc(-c3c(Cl)c(F)c(SCCCO)c4[nH]ncc34)cc2s1)[C@@H]1C[C@@H]1F` [Example 86, (1S,2S)-N-(6-(5-chloro-6-fluoro-7-((3-hydroxypropyl)thio)-1H-indazol-4-yl)benzo[d]thiazol-2-yl)-2-fluorocyclopropanecarboxamide]: the IC50 is below 100 nM.

As for `O=C(O)NC1CN(c2c(F)c(Cl)c(-c3ccc4nc(NC(=O)[C@@H]5C[C@@H]5F)sc4c3)c3cn[nH]c23)C1` [Example 88, (1-(5-chloro-6-fluoro-4-(2-((1S,2S)-2-fluorocyclopropane-1-carboxamido)benzo[d]thiazol-6-yl)-1H-indazol-7-yl)azetidin-3-yl)carbamic acid], the concentration for half-maximal inhibition (IC50) was below 100 nM.

`CN(C(=O)O)C1CN(c2c(F)c(Cl)c(-c3ccc4nc(NC(=O)[C@@H]5C[C@@H]5F)sc4c3)c3cn[nH]c23)C1` [Example 89, (1-(5-chloro-6-fluoro-4-(2-((1S,2S)-2-fluorocyclopropane-1-carboxamido)benzo[d]thiazol-6-yl)-1H-indazol-7-yl)azetidin-3-yl)(methyl)carbamic acid]: the concentration for half-maximal inhibition (IC50) is below 100 nM.

As for `O=C(O)NCC1CN(c2c(F)c(Cl)c(-c3ccc4nc(NC(=O)[C@@H]5C[C@@H]5F)sc4c3)c3cn[nH]c23)C1` [Example 90, ((1-(5-chloro-6-fluoro-4-(2-((1S,2S)-2-fluorocyclopropane-1-carboxamido)benzo[d]thiazol-6-yl)-1H-indazol-7-yl)azetidin-3-yl)methyl)carbamic acid], the IC50 was below 100 nM.

Consider `NCC1CCN(c2c(F)c(Cl)c(-c3ccc4nc(NC(=O)[C@@H]5C[C@@H]5F)sc4c3)c3cn[nH]c23)C1` (stereo partly drawn) [Example 91, (1S,2S)-N-(6-(7-(3-(aminomethyl)pyrrolidin-1-yl)-5-chloro-6-fluoro-1H-indazol-4-yl)benzo[d]thiazol-2-yl)-2-fluorocyclopropanecarboxamide], for which the IC50 was in the range of 101 to 500 nM.

In the case of `CNCCN(C)c1c(F)c(Cl)c(-c2ccc3nc(NC(=O)[C@@H]4C[C@@H]4F)sc3c2)c2cn[nH]c12` [Example 92, (1S,2S)-N-(6-(5-chloro-6-fluoro-7-(methyl(2-(methylamino)ethyl)amino)-1H-indazol-4-yl)benzo[d]thiazol-2-yl)-2-fluorocyclopropane-1-carboxamide], the IC50 is below 100 nM.

On to `CN(CCO)c1c(F)c(Cl)c(-c2ccc3nc(NC(=O)[C@@H]4C[C@@H]4F)sc3c2)c2cn[nH]c12` [Example 93, (1S,2S)-N-(6-(5-chloro-6-fluoro-7-((2-hydroxyethyl)(methyl)amino)-1H-indazol-4-yl)benzo[d]thiazol-2-yl)-2-fluorocyclopropanecarboxamide], for which the IC50 was below 100 nM.

`CN(CC1CNC1)c1c(F)c(Cl)c(-c2ccc3nc(NC(=O)[C@@H]4C[C@@H]4F)sc3c2)c2cn[nH]c12` [Example 94, (1S,2S)-N-(6-(7-((azetidin-3-ylmethyl)(methyl)amino)-5-chloro-6-fluoro-1H-indazol-4-yl)benzo[d]thiazol-2-yl)-2-fluorocyclopropanecarboxamide]: the IC50 is below 100 nM.

Turning to `O=C(Nc1nc2ccc(-c3c(Cl)c(F)c(NCC4CNC4)c4[nH]ncc34)cc2s1)[C@@H]1C[C@@H]1F` [Example 95, (1S,2S)-N-(6-(7-((azetidin-3-ylmethyl)amino)-5-chloro-6-fluoro-1H-indazol-4-yl)benzo[d]thiazol-2-yl)-2-fluorocyclopropanecarboxamide], the IC50 is below 100 nM.

Broadly, the IC50 is the point on the concentration scale where inhibition reaches its midpoint.

The record behind these values is patent publication US11649255B2, “Indazoles as hematopoietic progenitor kinase 1 (HPK1) inhibitors and methods using same” (1st Biotherapeutics, Inc., priority 2020, dated 2023).
